Measurements published in patent publication US4477444A, “Antracycline glycosides, pharmaceutical compositions and method of use” (priority 1981, dated 1984).

What was measured:
P388 leukemia = experiment: Activity against P388 ascitic leukemia in mice, i.p. treatment on day 1 after tumor inoculation; assay type: in vivo; details: for antitumor activity (overall conclusion): conclusion from all studies; for potency relative to the corresponding parent compounds / toxicity relative to the corresponding parent compounds: i.p. day 1, P388 leukemia mice
Description: (§1) Activity against P388 ascitic leukemia of XOO-0148 and
(§2) Treatment i.p. on day 1 after tumor inoculation
(§3) ^(a) T/C % = median survival time of treated mice/median survival tim

[1] = as above; assay type: in vivo; details: mouse, in vivo, ip; for MTD: i.p. day 1, P388 leukemia mice, read-out: maximal tolerated dose
Description: as §1, §2, §3

Hela cells = experiment: Activity on Hela cells cloning efficiency in vitro, treatment for 24 hours; assay type: cell-based; details: for cytotoxicity relative to daunorubicin and doxorubicin: Hela cells cloning efficiency in vitro; for % of controls (Hela cells cloning efficiency): 24 hours
[2] = Activity against i.v. inoculated Gross leukemia in mice, i.v. treatment on day 1 after tumor inoculation; assay type: in vivo; details: mouse, in vivo, iv; i.v. day 1, Gross leukemia mice; read-out: maximal tolerated dose
Protocol: (§4) Compound XOO-0148 was also tested on the i.v. inoculated Gross leukemia. Mice were treated i.v. on day 1.
(§5) Activity against Gross leukemia of XOO-0148
(§6) Treatment i.v. on day 1 after tumor inoculation
as §3

Gross leukemia = experiment: as above; assay type: in vivo
Protocol: as §4, §5, §6, §3

[3] = dose 12.5 (dose unit not given)

Compound: COc1cccc2c1C(=O)c1c(O)c3c(c(O)c1C2=O)C[C@@](O)(C(=O)CO)C[C@@H]3O[C@H]1C[C@@H](N)C[C@H](C)O1 [XOO-0155, 4'-deoxy-3'-epi-doxorubicin]
- T/C % (median survival time of treated mice/median survival time of controls x100) (P388 leukemia; 15 mg/kg i.p. day 1): 195%
- Toxicity Death (P388 leukemia; 15 mg/kg i.p. day 1): 0/10
- T/C % (median survival time of treated mice/median survival time of controls x100) (P388 leukemia; 22.5 mg/kg i.p. day 1): 235%
- antitumor effect relative to doxorubicin (P388 leukemia; 22.5 mg/kg i.p. vs doxorubicin at 10 mg/kg): lower than that observed after treatment with doxorubicin
- T/C % (median survival time of treated mice/median survival time of controls x100) (P388 leukemia; 33.7 mg/kg i.p. day 1): 260%
- Toxicity Death (P388 leukemia; 33.7 mg/kg i.p. day 1): 4/10
- T/C % (median survival time of treated mice/median survival time of controls x100) (P388 leukemia; 50 mg/kg i.p. day 1): 60%
- Toxicity Death (P388 leukemia; 50 mg/kg i.p. day 1): 8/10
- antitumor activity (overall conclusion) (P388 leukemia): remarkable antitumor activity
- potency relative to the corresponding parent compounds (P388 leukemia): less potent than the corresponding parent compounds
- toxicity relative to the corresponding parent compounds (P388 leukemia): less toxic
- antitumor effect (P388 leukemia; maximal tolerated dose 22.5 mg/kg i.p.): remarkable antitumor effect
- mortality ([1]; 22.5 mg/kg i.p. day 1, read-out: Toxicity Death): 10%
- MTD [1]: 22.5 mg/kg
- cytotoxicity relative to daunorubicin and doxorubicin (Hela cells): less cytotoxic than daunorubicin and doxorubicin
- % of controls (Hela cells cloning efficiency) (Hela cells; dose 100 (dose unit not given)): 12,5%

Compound: COc1cccc2c1C(=O)c1c(O)c3c(c(O)c1C2=O)C[C@@](O)(C(C)=O)C[C@@H]3O[C@H]1C[C@H](N)[C@H](O)[C@H](C)O1 [Daunorubicin, daunorubicin, reference compound]
- T/C % (median survival time of treated mice/median survival time of controls x100) (P388 leukemia; 2.9 mg/kg i.p. day 1): 155%
- Toxicity Death (P388 leukemia; 2.9 mg/kg i.p. day 1): 0/10
- T/C % (median survival time of treated mice/median survival time of controls x100) (P388 leukemia; 4.4 mg/kg i.p. day 1): 160%
- Toxicity Death (P388 leukemia; 4.4 mg/kg i.p. day 1): 2/10
- T/C % (median survival time of treated mice/median survival time of controls x100) (P388 leukemia; 6.6 mg/kg i.p. day 1): 150%
- Toxicity Death (P388 leukemia; 6.6 mg/kg i.p. day 1): 5/10
- MTD [1]: 2.9 mg/kg
- % of controls (Hela cells cloning efficiency) (Hela cells; dose 6.2 (dose unit not given)): 90,48%
- % of controls (Hela cells cloning efficiency) (Hela cells; [3]): 44,19%
- MTD [2]: 6 mg/kg
- T/C % (median survival time of treated mice/median survival time of controls x100) (Gross leukemia; 4.6 mg/kg i.v. day 1): 180%
- Toxicity Death (Gross leukemia; 4.6 mg/kg i.v. day 1): 0/10
- T/C % (median survival time of treated mice/median survival time of controls x100) (Gross leukemia; 6 mg/kg i.v. day 1): 250%
- Toxicity Death (Gross leukemia; 6 mg/kg i.v. day 1): 0/10
- T/C % (median survival time of treated mice/median survival time of controls x100) (Gross leukemia; 7.8 mg/kg i.v. day 1): 250%
- Toxicity Death (Gross leukemia; 7.8 mg/kg i.v. day 1): 3/10

Compound: COc1cccc2c1C(=O)c1c(O)c3c(c(O)c1C2=O)C[C@@](O)(C(C)=O)C[C@@H]3O[C@H]1C[C@@H](N)C[C@H](C)O1 [XOO-0148, 4'-deoxy-3'-epi-daunorubicin]
- T/C % (median survival time of treated mice/median survival time of controls x100) (P388 leukemia; 5.1 mg/kg i.p. day 1): 110%
- Toxicity Death (P388 leukemia; 5.1 mg/kg i.p. day 1): 0/10
- T/C % (median survival time of treated mice/median survival time of controls x100) (P388 leukemia; 9.2 mg/kg i.p. day 1): 120%
- Toxicity Death (P388 leukemia; 9.2 mg/kg i.p. day 1): 0/10
- T/C % (median survival time of treated mice/median survival time of controls x100) (P388 leukemia; 16.6 mg/kg i.p. day 1): 130%
- Toxicity Death (P388 leukemia; 16.6 mg/kg i.p. day 1): 0/10
- toxicity at the maximal dose tested (P388 leukemia; 30 mg/kg i.p.): not toxic
- T/C % (median survival time of treated mice/median survival time of controls x100) (P388 leukemia; 30 mg/kg i.p. day 1): 145%
- Toxicity Death (P388 leukemia; 30 mg/kg i.p. day 1): 0/10
- antitumor activity relative to daunorubicin (P388 leukemia; 30 mg/kg i.p. vs daunorubicin at 2.9 mg/kg): about as active as daunorubicin
- antitumor activity (overall conclusion) (P388 leukemia): remarkable antitumor activity
- potency relative to the corresponding parent compounds (P388 leukemia): less potent than the corresponding parent compounds
- toxicity relative to the corresponding parent compounds (P388 leukemia): less toxic
- cytotoxicity relative to daunorubicin and doxorubicin (Hela cells): less cytotoxic than daunorubicin and doxorubicin
- % of controls (Hela cells cloning efficiency) (Hela cells; dose 1.5 (dose unit not given)): 89%
- % of controls (Hela cells cloning efficiency) (Hela cells; dose 3.1 (dose unit not given)): 100%
- % of controls (Hela cells cloning efficiency) (Hela cells; dose 6.2 (dose unit not given)): 98%
- % of controls (Hela cells cloning efficiency) (Hela cells; [3]): 111%
- % of controls (Hela cells cloning efficiency) (Hela cells; dose 25 (dose unit not given)): 74,95%
- % of controls (Hela cells cloning efficiency) (Hela cells; dose 50 (dose unit not given)): 86%
- % of controls (Hela cells cloning efficiency) (Hela cells; dose 100 (dose unit not given)): 10%
- MTD [2]: 22.5 mg/kg
- T/C % (median survival time of treated mice/median survival time of controls x100) (Gross leukemia; 22.5 mg/kg i.v. day 1): 240%
- Toxicity Death (Gross leukemia; 22.5 mg/kg i.v. day 1): 0/10
- antitumor activity relative to daunorubicin (Gross leukemia; 22.5 mg/kg i.v. vs daunorubicin at 6 mg/kg): about as active as daunorubicin
- T/C % (median survival time of treated mice/median survival time of controls x100) (Gross leukemia; 33.7 mg/kg i.v. day 1): 150%
- Toxicity Death (Gross leukemia; 33.7 mg/kg i.v. day 1): 6/10
- T/C % (median survival time of treated mice/median survival time of controls x100) (Gross leukemia; 50 mg/kg i.v. day 1): 120%
- Toxicity Death (Gross leukemia; 50 mg/kg i.v. day 1): 10/10
- toxicity relative to daunorubicin (Gross leukemia; i.v. day 1, Gross leukemia mice): less toxic than daunorubicin

Compound: COc1cccc2c1C(=O)c1c(O)c3c(c(O)c1C2=O)C[C@@](O)(C(=O)CO)C[C@@H]3O[C@H]1C[C@H](N)[C@H](O)[C@H](C)O1 [Doxorubicin, doxorubicin, reference compound]
- T/C % (median survival time of treated mice/median survival time of controls x100) (P388 leukemia; 4.4 mg/kg i.p. day 1): 245%
- Toxicity Death (P388 leukemia; 4.4 mg/kg i.p. day 1): 0/10
- T/C % (median survival time of treated mice/median survival time of controls x100) (P388 leukemia; 6.6 mg/kg i.p. day 1): 255%
- Toxicity Death (P388 leukemia; 6.6 mg/kg i.p. day 1): 0/10
- T/C % (median survival time of treated mice/median survival time of controls x100) (P388 leukemia; 10 mg/kg i.p. day 1): 345%
- Toxicity Death (P388 leukemia; 10 mg/kg i.p. day 1): 0/10
- MTD [1]: 10 mg/kg
- % of controls (Hela cells cloning efficiency) (Hela cells; [3]): 63,93%
- % of controls (Hela cells cloning efficiency) (Hela cells; dose 25 (dose unit not given)): 26,22%
